Data: patent publication US12655116B2, “Substituted isophthalic acid diamides” (Bayer Aktiengesellschaft, priority 2020, dated 2026)

How the values were obtained:
ABUTH [1] = assay: Pre-emergence herbicidal action against ABUTH; assay type: in vivo, Abutilon theophrasti; details: for Pre-emergence action against ABUTH (herbicidal activity): 80 g/ha, scored visually after 3 weeks vs untreated controls (100% = plants have died, 0% = like control plants); for Pre-emergence action against ABUTH (herbicidal activity in percent): dosage 20 g/ha, scored visually after 3 weeks vs untreated controls, 100% = plants have died, 0% = like control plants
Summary of the method: (§1)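 Sandy loam pots, seeds covered with soil, then surface-treated with WP or EC formulations at 600–800 l/ha water plus 0.2% wetting agent. Greenhouse, 3 weeks. Percent damage vs untreated controls.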

AMARE [2] = assay: Pre-emergence herbicidal action against AMARE; assay type: in vivo, Amaranthus retroflexus
Summary of the method: as §1

SETVI [3] = assay: Pre-emergence herbicidal action against SETVI; assay type: in vivo, Setaria viridis; details: dosage 80 g/ha
Summary of the method: as §1

STEME [4] = assay: Pre-emergence herbicidal action against STEME; assay type: in vivo, Stellaria media
Text: Seeds of monocotyledonous and dicotyledonous weed plants and crop plants are laid out in sandy loam soil in wood-fiber pots and covered with soil. The compounds of the invention, formulated in the form of wettable powders (WP) or as emulsion concentrates (EC), are then applied to the surface of the covering soil in the form of an aqueous suspension or emulsion at a water application rate equivalent to 600 to 800 l/ha, with addition of 0.2% wetting agent. After the treatment, the pots are placed in a greenhouse and kept under good growth conditions for the trial plants. The damage to the test plants is scored visually after a test period of 3 weeks by comparison with untreated controls (herbicidal activity in percent (%): 100% activity=the plants have died, 0% activity=like control plants). […] The tables below illustrate, in an illustrative manner, the post-emergence herbicidal action of the compounds of the invention, the herbicidal activity being stated in percent.

VIOTR [5] = assay: Pre-emergence herbicidal action against VIOTR; assay type: in vivo, Viola tricolor
Summary of the method: as §1

DIGSA [6] = assay: Pre-emergence herbicidal action against DIGSA; assay type: in vivo, Digitaria sanguinalis
Summary of the method: as §1

ABUTH [7] = assay: Post-emergence herbicidal action against ABUTH; assay type: in vivo, Abutilon theophrasti; details: visual assessment about 3 weeks after treatment vs untreated controls
Summary of the method: (§2)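 Herbicidal action is a visual percentage rating (0% = as untreated control, 100% = plants dead) made roughly 3 weeks after treatment. Plants were grown in sandy loam in the greenhouse and treated at the one-leaf stage, 2 to 3 weeks post-sowing. Treatment was a foliar spray of wettable-powder or emulsion-concentrate formulations at 600 to 800 l/ha water plus 0.2% wetting agent.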

AMARE [8] = assay: Post-emergence herbicidal action against AMARE; assay type: in vivo, Amaranthus retroflexus; details: 20 g/ha, visual assessment about 3 weeks after treatment, 100% = plants have died, 0% = like control plants
Summary of the method: as §2

ECHCG [9] = assay: Post-emergence herbicidal action against ECHCG; assay type: in vivo, Echinochloa crus-galli
Summary of the method: as §2

SETVI [10] = assay: Post-emergence herbicidal action against SETVI; assay type: in vivo, Setaria viridis
Summary of the method: as §2

STEME [11] = assay: Post-emergence herbicidal action against STEME; assay type: in vivo, Stellaria media
Description: Seeds of monocotyledonous and dicotyledonous weed and crop plants are laid out in sandy loam soil in wood-fiber pots, covered with soil and cultivated in a greenhouse under good growth conditions. 2 to 3 weeks after sowing, the test plants are treated at the one-leaf stage. The compounds of the invention, formulated in the form of wettable powders (WP) or as emulsion concentrates (EC), are then sprayed onto the green parts of the plants in the form of an aqueous suspension or emulsion at a water application rate equivalent to 600 to 800 l/ha, with addition of 0.2% wetting agent. After the test plants have been left to stand in the greenhouse under optimal growth conditions for about 3 weeks, the action of the preparations is assessed visually in comparison to untreated controls (herbicidal action in percent (%): 100% activity=the plants have died, 0% activity=like control plants). […] The tables below illustrate, in an illustrative manner, the post-emergence herbicidal action of the compounds of the invention, the herbicidal activity being stated in percent.

DIGSA [12] = assay: Post-emergence herbicidal action against DIGSA; assay type: in vivo, Digitaria sanguinalis; details: for Post-emergence action against DIGSA: 20 g/ha; for Post-emergence action against DIGSA in %: 5 g/ha
Summary of the method: as §2

ALOMY [13] = assay: Pre-emergence herbicidal action against ALOMY; assay type: in vivo, Alopecurus myosuroides; details: 80 g/ha, pre-emergence, scored visually after 3 weeks vs untreated controls (100% = plants have died, 0% = like control plants)
Summary of the method: as §1

AVEFA = assay: Pre-emergence herbicidal action against AVEFA; assay type: in vivo, Avena fatua; details: 80 g/ha, pre-emergence
Summary of the method: as §1

ECHCG [14] = assay: Pre-emergence herbicidal action against ECHCG; assay type: in vivo, Echinochloa crus-galli; details: 80 g/ha
Summary of the method: as §1

MATIN [15] = assay: Pre-emergence herbicidal action against MATIN; assay type: in vivo, Matricaria inodora
Summary of the method: as §1

POLCO = assay: Pre-emergence herbicidal action against POLCO; assay type: in vivo, Polygonum convolvulus; details: dosage 80 g/ha
Summary of the method: as §1

ALOMY [16] = assay: Post-emergence herbicidal action against ALOMY; assay type: in vivo, Alopecurus myosuroides; details: dosage 20 g/ha, visual assessment about 3 weeks after treatment vs untreated controls
Summary of the method: as §2

MATIN [17] = assay: Post-emergence herbicidal action against MATIN; assay type: in vivo, Matricaria inodora; details: dosage 20 g/ha
Summary of the method: as §2

VIOTR [18] = assay: Post-emergence herbicidal action against VIOTR; assay type: in vivo, Viola tricolor
Summary of the method: as §2

VERPE [19] = assay: Pre-emergence herbicidal action against VERPE; assay type: in vivo, Veronica persica; details: dosage 80 g/ha
Summary of the method: as §1

PHBPU = assay: Post-emergence herbicidal action against PHBPU; assay type: in vivo, Pharbitis purpurea
Summary of the method: as §2

VERPE [20] = assay: Post-emergence herbicidal action against VERPE; assay type: in vivo, Veronica persica; details: 20 g/ha
Summary of the method: as §2

[21] = 20 g/ha, scored visually after 3 weeks vs untreated controls, 100% = plants have died, 0% = like control plants
[22] = 80 g/ha, scored visually after 3 weeks vs untreated controls (100% = plants have died, 0% = like control plants)

| SMILES | Pre-emergence action against ABUTH (herbicidal activity) (ABUTH [1]) | Pre-emergence action against ABUTH (herbicidal activity in percent) (ABUTH [1]) | Pre-emergence action against AMARE in % (AMARE [2]; [21]) | Pre-emergence action against AMARE in % (AMARE [2]; [22]) | Pre-emergence action against SETVI in % (SETVI [3]) | Pre-emergence action against STEME in % (STEME [4]; dosage 80 g/ha) | Pre-emergence action against VIOTR in % (VIOTR [5]; dosage 80 g/ha) | Pre-emergence action against DIGSA in % (DIGSA [6]; dosage 20 g/ha) | Pre-emergence action against DIGSA in % (DIGSA [6]; dosage 80 g/ha) | Post-emergence action against ABUTH in % (ABUTH [7]; dosage 5 g/ha) | Post-emergence action against ABUTH in % (ABUTH [7]; dosage 20 g/ha) | Post-emergence action at 20 g/ha against AMARE in % (AMARE [8]) | Post-emergence action against ECHCG in % (ECHCG [9]; dosage 20 g/ha) | Post-emergence action against SETVI in % (SETVI [10]; dosage 20 g/ha) | Post-emergence action against STEME in % (STEME [11]; 20 g/ha) | Post-emergence action against DIGSA (DIGSA [12]) | Pre-emergence action against ECHCG in % (ECHCG [14]) | Pre-emergence action against MATIN in % (MATIN [15]; dosage 20 g/ha) | Pre-emergence action against MATIN in % (MATIN [15]; dosage 80 g/ha) | Pre-emergence action against STEME in % (STEME [4]; dosage 20 g/ha) | other results |
| --- | --- | --- | --- | --- | --- | --- | --- | --- | --- | --- | --- | --- | --- | --- | --- | --- | --- | --- | --- | --- | --- |
| NC(=O)c1c(C(F)(F)F)ccc(C(=O)Nc2nnco2)c1Cl [Example 5-253] | 100% | 90% | 100% | 100% | 80% | 90% | 90% | 80% | 90% | 90% | 90% | 80% | 80% | 80% | 80% | 80% | – | – | – | – | Post-emergence action against SETVI in % (SETVI [10]; dosage 5 g/ha): 80% |
| Cc1nnc(NC(=O)c2ccc(C(F)(F)F)c(C(=O)NC3CC3)c2Cl)o1 [Example 6-118] | 100% | 100% | 80% | 100% | 100% | 100% | 90% | 90% | 100% | 80% | 90% | 100% | 90% | – | 100% | 100% | 100% | 90% | 100% | 90% | Pre-emergence action against ALOMY (herbicidal activity) (ALOMY [13]): 100%; Pre-emergence action against AVEFA in % (AVEFA): 90%; Pre-emergence action against POLCO in % (POLCO): 80%; Pre-emergence action against VIOTR in % (VIOTR [5]; dosage 20 g/ha): 90%; Post-emergence action against ALOMY in % (ALOMY [16]): 80%; Post-emergence action against MATIN in % (MATIN [17]): 80%; Post-emergence action against VIOTR in % (VIOTR [18]; 20 g/ha): 80%; Post-emergence action against DIGSA in % (DIGSA [12]): 100% |
| CCNC(=O)c1c(C(F)F)ccc(C(=O)Nc2nnc(C)o2)c1C [Example 6-32] | 80% | – | 80% | 100% | – | 90% | – | 90% | 100% | 80% | 80% | 100% | – | 80% | 80% | 80% | 90% | – | 90% | – | Pre-emergence action against POLCO in % (POLCO): 80%; Post-emergence action against DIGSA in % (DIGSA [12]): 80% |
| CNC(=O)c1c(C(F)(F)F)ccc(C(=O)Nc2nnco2)c1SC [Example 5-58] | 100% | 90% | 100% | 100% | 100% | 100% | 100% | 90% | 100% | 90% | 90% | 90% | 90% | 100% | 90% | 100% | 90% | 90% | 100% | 100% | Pre-emergence action against AVEFA in % (AVEFA): 80%; Pre-emergence action against VERPE in % (VERPE [19]): 80%; Pre-emergence action against VIOTR in % (VIOTR [5]; dosage 20 g/ha): 90%; Post-emergence action against ALOMY in % (ALOMY [16]): 80%; Post-emergence action against ECHCG in % (ECHCG [9]; dosage 5 g/ha): 80%; Post-emergence action against MATIN in % (MATIN [17]): 80%; Post-emergence action against PHBPU in % (PHBPU; dosage 5 g/ha): 80%; Post-emergence action against PHBPU in % (PHBPU; dosage 20 g/ha): 90%; Post-emergence action against SETVI in % (SETVI [10]; dosage 5 g/ha): 80%; Post-emergence action against STEME in % (STEME [11]; dosage 5 g/ha): 90%; Post-emergence action against VERPE in % (VERPE [20]): 80%; Post-emergence action against VIOTR in % (VIOTR [18]; 5 g/ha): 80%; Post-emergence action against VIOTR in % (VIOTR [18]; 20 g/ha): 80%; Post-emergence action against DIGSA in % (DIGSA [12]): 90% |
| CCn1nnnc1NC(=O)c1ccc(S(C)(=O)=O)c(C(=O)NC2CC2)c1Cl [Example 2-125] | 100% | – | 80% | 100% | – | 100% | 100% | – | – | – | – | 80% | – | – | 80% | – | – | 80% | 100% | 80% | Pre-emergence action against AVEFA in % (AVEFA): 100%; Post-emergence action against VIOTR in % (VIOTR [18]; 5 g/ha): 100%; Post-emergence action against VIOTR in % (VIOTR [18]; 20 g/ha): 100% |
| CCc1c(C(=O)Nc2nnc(C)o2)ccc(C(F)(F)F)c1C(=O)NC1CC1 [Example 6-212] | 90% | 80% | 90% | 90% | 90% | 90% | – | 100% | 100% | 80% | 90% | 90% | 90% | 80% | 90% | 90% | 90% | 80% | 90% | 80% | Pre-emergence action against ALOMY (herbicidal activity) (ALOMY [13]): 80%; Post-emergence action against ALOMY in % (ALOMY [16]): 80%; Post-emergence action against ECHCG in % (ECHCG [9]; dosage 5 g/ha): 90%; Post-emergence action against STEME in % (STEME [11]; dosage 5 g/ha): 80%; Post-emergence action against DIGSA in % (DIGSA [12]): 80% |
